The experiment has as its target full-length human PIKFYVE (Homo sapiens (Human), UniProt Q9Y2I7, L932S/Q1183K/Q995L/S1033A/S696N/T998S). As to the kind of experiment: PIKfyve biochemical assay (ADP-Glo Kinase assay, Carna Biosciences). To be noted: ADP-Glo, GST-PIKFYVE, 10 μM to 3 nM; read-out: hPIKfyve IC50. The protocol: (§1) PIKfyve Biochemical Assay. The biochemical PIKFyve inhibition assays were run by Carna Biosciences according to proprietary methodology based on the Promega ADP-Glo™ Kinase assay. […] GST-PIKFYVE was purified by using glutathione sepharose chromatography and used in an ADP-Glo™ Kinase assay (Promega). Reactions were set up by adding the test compound solution, substrate solution, ATP solution and kinase solution, each at 4× final concentrations. Reactions were prepared with assay buffer (50 mM MOPS, 1 mM DTT, pH7.2), mixed, and incubated in black 384 well polystyrene plates for 1 hour at room temperature. ADPGlo™ reagent was then added for 40 minutes, followed by kinase detection reagent for an additional 40 minutes. The kinase activity was evaluated by detecting relative light units on a luminescence plate reader. Samples were run in duplicate from 10 μM to 3 nM. […] IC50 values were calculated from concentration vs % inhibition curves by fitting to a four-parameter logistic curve.
as §1, with “The” for “PIKfyve Biochemical Assay. The”, “ADP-Glo™” for “ADPGlo™”, “uM” for “μM”, “curve. […]” for “curve.”
full-length human PIKFYVE, sequence (Q9Y2I7 whole entry S696N/L932S/Q995L/T998S/S1033A/Q1183K): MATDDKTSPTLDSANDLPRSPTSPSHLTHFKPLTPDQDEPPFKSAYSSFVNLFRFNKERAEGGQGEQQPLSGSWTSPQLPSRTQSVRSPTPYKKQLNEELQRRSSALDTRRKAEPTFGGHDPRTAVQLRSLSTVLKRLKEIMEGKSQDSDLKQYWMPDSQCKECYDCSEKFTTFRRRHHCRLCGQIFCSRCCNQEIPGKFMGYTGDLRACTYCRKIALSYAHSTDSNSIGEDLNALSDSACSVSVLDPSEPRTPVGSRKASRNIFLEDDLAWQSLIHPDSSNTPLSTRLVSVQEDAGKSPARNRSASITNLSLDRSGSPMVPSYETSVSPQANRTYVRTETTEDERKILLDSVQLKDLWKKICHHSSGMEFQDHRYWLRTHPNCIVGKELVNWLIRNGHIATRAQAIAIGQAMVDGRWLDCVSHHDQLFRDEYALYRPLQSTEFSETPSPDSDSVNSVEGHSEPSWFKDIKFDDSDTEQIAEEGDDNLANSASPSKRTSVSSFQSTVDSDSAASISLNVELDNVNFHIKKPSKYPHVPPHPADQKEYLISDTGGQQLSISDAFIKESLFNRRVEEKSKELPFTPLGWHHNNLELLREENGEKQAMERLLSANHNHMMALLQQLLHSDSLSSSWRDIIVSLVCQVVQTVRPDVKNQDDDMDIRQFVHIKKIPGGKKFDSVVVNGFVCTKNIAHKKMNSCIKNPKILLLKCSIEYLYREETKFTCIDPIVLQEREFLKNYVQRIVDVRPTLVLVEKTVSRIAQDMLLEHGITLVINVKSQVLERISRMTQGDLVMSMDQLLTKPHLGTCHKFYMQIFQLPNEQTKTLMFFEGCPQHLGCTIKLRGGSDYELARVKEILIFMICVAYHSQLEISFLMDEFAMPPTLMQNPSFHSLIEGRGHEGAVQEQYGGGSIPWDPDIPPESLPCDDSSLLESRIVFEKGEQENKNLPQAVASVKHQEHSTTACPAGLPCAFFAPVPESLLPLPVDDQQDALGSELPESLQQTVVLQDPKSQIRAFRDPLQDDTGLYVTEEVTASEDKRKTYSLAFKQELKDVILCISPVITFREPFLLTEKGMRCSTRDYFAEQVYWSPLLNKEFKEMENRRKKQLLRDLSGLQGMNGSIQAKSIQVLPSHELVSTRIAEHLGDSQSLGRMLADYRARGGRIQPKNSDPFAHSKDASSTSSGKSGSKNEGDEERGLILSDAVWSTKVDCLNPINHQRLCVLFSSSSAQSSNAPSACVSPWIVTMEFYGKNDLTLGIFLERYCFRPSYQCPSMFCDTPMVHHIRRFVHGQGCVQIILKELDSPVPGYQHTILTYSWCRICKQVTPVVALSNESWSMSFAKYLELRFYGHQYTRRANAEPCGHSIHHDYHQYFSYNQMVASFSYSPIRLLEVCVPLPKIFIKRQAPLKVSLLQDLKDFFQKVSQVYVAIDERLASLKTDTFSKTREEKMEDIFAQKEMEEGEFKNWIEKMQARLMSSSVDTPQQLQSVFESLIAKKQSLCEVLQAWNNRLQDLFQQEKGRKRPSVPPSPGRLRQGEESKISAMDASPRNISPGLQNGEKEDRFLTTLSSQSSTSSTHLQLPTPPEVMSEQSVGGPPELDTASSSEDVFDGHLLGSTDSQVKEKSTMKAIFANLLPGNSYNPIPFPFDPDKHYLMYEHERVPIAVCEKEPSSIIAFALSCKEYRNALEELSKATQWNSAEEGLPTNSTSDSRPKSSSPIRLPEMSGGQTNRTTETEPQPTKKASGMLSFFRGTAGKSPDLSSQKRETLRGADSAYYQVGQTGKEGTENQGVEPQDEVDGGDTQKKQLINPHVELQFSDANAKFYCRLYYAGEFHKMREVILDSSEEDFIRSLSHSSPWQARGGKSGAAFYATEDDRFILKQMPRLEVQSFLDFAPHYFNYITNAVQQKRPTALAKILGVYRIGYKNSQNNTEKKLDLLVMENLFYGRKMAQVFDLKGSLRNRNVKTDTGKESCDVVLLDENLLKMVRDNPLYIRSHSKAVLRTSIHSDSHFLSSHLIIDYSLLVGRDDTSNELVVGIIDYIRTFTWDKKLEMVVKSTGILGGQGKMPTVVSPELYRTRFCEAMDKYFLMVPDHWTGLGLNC
In the case of `Cn1c(C2CNC2)nc2c(N3CCOCC3)nc(-n3ccc(-c4ccccc4)n3)nc21` [Compound 83, 4-(8-(azetidin-3-yl)-9-methyl-2-(3-phenyl-1H-pyrazol-1-yl)-9H-purin-6-yl)morpholine], the IC50 was in the range of 10 to 100 nM.

Turning to `Cn1c(-c2ccncc2)nc2c(N3CCOCC3)nc(-n3ccc(CC4CN(C(=O)OC(C)(C)C)C4)n3)nc21` [Compound 84, tert-butyl 3-((1-(9-methyl-6-morpholino-8-(pyridin-4-yl)-9H-purin-2-yl)-1H-pyrazol-3-yl)methyl)azetidine-1-carboxylate], the 50% inhibitory concentration (IC50) fell in the range of 10 to 100 nM.

On to `Cn1c(C2=CCOCC2)nc2c(N3CCOCC3)nc(-n3ccc(-c4cccnc4)n3)nc21` [Compound 85, 4-(8-(3,6-dihydro-2H-pyran-4-yl)-9-methyl-2-(3-(pyridin-3-yl)-1H-pyrazol-1-yl)-9H-purin-6-yl)morpholine], for which the IC50 was in the range of 10 to 100 nM.

`CN1CC(Cc2ccn(-c3nc(N4CCOCC4)c4nc(-c5ccncc5)n(C)c4n3)n2)C1` [Compound 86, 4-(9-methyl-2-(3-((1-methylazetidin-3-yl)methyl)-1H-pyrazol-1-yl)-8-(pyridin-4-yl)-9H-purin-6-yl)morpholine]: the half-maximal inhibitory concentration (IC50) is < 10 nM.

For the molecule `CN1CC(c2ccn(-c3nc(N4CCOCC4)c4nc(-c5ccncc5)n(C)c4n3)n2)CCC1=O` (centres unmarked) [Compound 88, 1-methyl-5-(1-(9-methyl-6-morpholino-8-(pyridin-4-yl)-9H-purin-2-yl)-1H-pyrazol-3-yl)piperidin-2-one], the IC50 is < 10 nM.

As for `Cn1c(C2CCOCC2)nc2c(N3CCOCC3)nc(-c3noc(-c4ccccc4)n3)nc21` [Compound 89, 4-(9-methyl-2-(5-phenyl-1,2,4-oxadiazol-3-yl)-8-(tetrahydro-2H-pyran-4-yl)-9H-purin-6-yl)morpholine], the 50% inhibitory concentration (IC50) was 100 to 1000 nM.

Regarding `Cn1c(C2CCNC2)nc2c(N3CCOCC3)nc(-n3ccc(-c4ccccc4)n3)nc21` (centres unmarked) [Compound 90, 4-(9-Methyl-2-(3-phenyl-1H-pyrazol-1-yl)-8-(pyrrolidin-3-yl)-9H-purin-6-yl)morpholine], the concentration for half-maximal inhibition (IC50) lay within 10 to 100 nM.

As for `CC1CC(c2cccc(-c3nc(N4CCOCC4)c4nc(-c5ccncc5)n(C)c4n3)n2)CCN1` (centres unmarked) [Compound 91, 4-(9-methyl-2-(6-(2-methylpiperidin-4-yl)pyridin-2-yl)-8-(pyridin-4-yl)-9H-purin-6-yl)morpholine], the IC50 was 100 to 1000 nM.

Consider `Cn1c(-c2ccncc2)nc2c(N3CCOCC3)nc(-n3cc(-c4ccccc4)cn3)nc21` [Compound 92, 4-(9-methyl-2-(4-phenyl-1H-pyrazol-1-yl)-8-(pyridin-4-yl)-9H-purin-6-yl)morpholine], for which the IC50 is 10 to 100 nM.

As for `Cn1c(-c2ccncc2)nc2c(N3CCOCC3)nc(-n3cc(-c4ccncc4)cn3)nc21` [Compound 93, 4-(9-methyl-8-(pyridin-4-yl)-2-(4-(pyridin-4-yl)-1H-pyrazol-1-yl)-9H-purin-6-yl)morpholine], the half-maximal inhibitory concentration (IC50) was 10 to 100 nM.

As for `Cn1c(-c2ccncc2)nc2c(N3CCOCC3)nc(-c3ccnc(C(F)(F)F)n3)nc21` [Compound 94, 4-(9-methyl-8-(pyridin-4-yl)-2-(2-(trifluoromethyl)pyrimidin-4-yl)-9H-purin-6-yl)morpholine], the concentration for half-maximal inhibition (IC50) lay in the range of 10 to 100 nM.

On to `Cn1c(-c2ccncc2)nc2c(N3CCOCC3)nc(-c3ccnc(C4CCCNC4)n3)nc21` (centres unmarked) [Compound 95, 4-(9-methyl-2-(2-(piperidin-3-yl)pyrimidin-4-yl)-8-(pyridin-4-yl)-9H-purin-6-yl)morpholine], for which the IC50 fell in the range of 100 to 1000 nM.

As to `Cn1c(-c2ccncc2)nc2c(N3CCOCC3)nc(-n3ccc(C4CCOC4)n3)nc21` (centres unmarked) [Compound 96, 4-(9-methyl-8-(pyridin-4-yl)-2-(3-(tetrahydrofuran-3-yl)-1H-pyrazol-1-yl)-9H-purin-6-yl)morpholine], the IC50 was in the range of 1000 to 10000 nM.

`Cn1c(-c2ccncc2)nc2c(N3CCOCC3)nc(-c3ccnc(C4CC4)n3)nc21` [Compound 97, 4-(2-(2-cyclopropylpyrimidin-4-yl)-9-methyl-8-(pyridin-4-yl)-9H-purin-6-yl)morpholine]: the IC50 was in the range of 10 to 100 nM.

On to `Cn1c(-c2ccncc2)nc2c(N3CCOCC3)nc(-c3ccc(Cl)cn3)nc21` [Compound 98, 4-(2-(5-chloropyridin-2-yl)-9-methyl-8-(pyridin-4-yl)-9H-purin-6-yl)morpholine], for which the half-maximal inhibitory concentration (IC50) fell in the range of 10 to 100 nM.

As to `Cn1c(-c2ccncc2)nc2c(N3CCOCC3)nc(-c3ccc4c(c3)OCO4)nc21` [Compound 99, 4-(2-(benzo[d][1,3]dioxol-5-yl)-9-methyl-8-(pyridin-4-yl)-9H-purin-6-yl)morpholine], the IC50 fell in the range of 10 to 100 nM.

In the case of `Cn1c(-c2ccncc2)nc2c(N3CCOCC3)nc(-n3ccc(C(F)(F)F)n3)nc21` [Compound 100, 4-(9-methyl-8-(pyridin-4-yl)-2-(3-(trifluoromethyl)-1H-pyrazol-1-yl)-9H-purin-6-yl)morpholine], the IC50 was < 10 nM.

Regarding `Cn1c(-c2ccncc2)nc2c(N3CCOCC3)nc(N3CCC(F)(F)C3)nc21` [Compound 101, 4-(2-(3,3-difluoropyrrolidin-1-yl)-9-methyl-8-(pyridin-4-yl)-9H-purin-6-yl)morpholine], the IC50 fell in the range of 10 to 100 nM.

As for `Cn1c(-c2ccncc2)nc2c(N3CCOCC3)nc(NC3CCCC3)nc21` [Compound 102, N-cyclopentyl-9-methyl-6-morpholino-8-(pyridin-4-yl)-9H-purin-2-amine], the IC50 was in the range of 10 to 100 nM.

Consider `Cn1c(-c2ccncc2)nc2c(N3CCOCC3)nc(-c3nccc(C4CC4)n3)nc21` [Compound 103, 4-(2-(4-cyclopropylpyrimidin-2-yl)-9-methyl-8-(pyridin-4-yl)-9H-purin-6-yl)morpholine], for which the IC50 fell in the range of 10 to 100 nM.

With `Cn1c(-c2ccncc2)nc2c(N3CCOCC3)nc(-c3cccnc3)nc21` [Compound 104, 4-(9-methyl-2-(pyridin-3-yl)-8-(pyridin-4-yl)-9H-purin-6-yl)morpholine], the IC50 fell in the range of 10 to 100 nM.

Turning to `FC(F)n1c(-c2ccncc2)nc2c(N3CCOCC3)nc(-c3ccnc(-c4ccccc4)n3)nc21` [Compound 105, 4-(9-(difluoromethyl)-2-(2-phenylpyrimidin-4-yl)-8-(pyridin-4-yl)-9H-purin-6-yl)morpholine], the IC50 is 1000 to 10000 nM.

As to `COc1ccc(-c2nc(N3CCOCC3)c3nc(-c4ccncc4)n(C)c3n2)cc1OC` [Compound 106, 4-(2-(3,4-dimethoxyphenyl)-9-methyl-8-(pyridin-4-yl)-9H-purin-6-yl)morpholine], the concentration for half-maximal inhibition (IC50) was < 10 nM.

For `CN1Cc2ccc(-c3nc(N4CCOCC4)c4nc(-c5ccncc5)n(C)c4n3)cc2C1=O` [Compound 107, 2-methyl-6-(9-methyl-6-morpholino-8-(pyridin-4-yl)-9H-purin-2-yl)isoindolin-1-one], the IC50 is < 10 nM.

As for `Cn1c(-c2ccncc2)nc2c(N3CCOCC3)nc(-c3ccnc(C4CCNCC4)n3)nc21` [Compound 108, 4-(9-methyl-2-(2-(piperidin-4-yl)pyrimidin-4-yl)-8-(pyridin-4-yl)-9H-purin-6-yl)morpholine], the half-maximal inhibitory concentration (IC50) is < 10 nM.

Regarding `c1ccc(-c2nc(-c3nc(N4CCOCC4)c4nc(-c5ccncc5)[nH]c4n3)no2)cc1` [Compound 109, 4-(2-(5-phenyl-1,2,4-oxadiazol-3-yl)-8-(pyridin-4-yl)-9H-purin-6-yl)morpholine], the concentration for half-maximal inhibition (IC50) fell in the range of 10 to 100 nM.

For the molecule `Cn1c(-c2ccncc2)nc2c(N3CCOCC3)nc(C3CC3)nc21` [Compound 110, 4-(2-cyclopropyl-9-methyl-8-(pyridin-4-yl)-9H-purin-6-yl)morpholine], the half-inhibitory concentration (IC50) is < 10 nM.

`Cn1c(C2CCNCC2)nc2c(N3CCOCC3)nc(-c3ccc4c(c3)OCCO4)nc21` [Compound 113, 4-(2-(2,3-dihydrobenzo[b][1,4]dioxin-6-yl)-9-methyl-8-(piperidin-4-yl)-9H-purin-6-yl)morpholine]: the IC50 was < 10 nM.

With `Cn1c(-c2ccncc2)nc2c(N3CCOCC3)nc(-c3ccc4c(c3)NCCC4)nc21` [Compound 114, 4-(9-methyl-8-(pyridin-4-yl)-2-(1,2,3,4-tetrahydroquinolin-7-yl)-9H-purin-6-yl)morpholine], the half-maximal inhibitory concentration (IC50) is < 10 nM.

Consider `CS(=O)(=O)N1CCN(Cc2cc3c(N4CCOCC4)nc(-c4cccc5[nH]ncc45)nc3s2)CC1` [Compound 117], for which the IC50 lay within 100 to 1000 nM.

Regarding `Cc1cccc(/C=N/Nc2nc(N3CCOCC3)c3nc(-c4ccncc4)oc3n2)c1` [Compound 120], the IC50 is < 10 nM.

Consider `Cc1cccc(/C=N/Nc2nc(N3CCOCC3)c3nc(-c4ccncc4)sc3n2)c1` [Compound 121], for which the 50% inhibitory concentration (IC50) was < 10 nM.

As for `c1ccc(-c2nccc(-c3nc(N4CCOCC4)c4cc(-c5ccncc5)sc4n3)n2)cc1` [Compound 122], the half-inhibitory concentration (IC50) was in the range of 10 to 100 nM.

As to `c1ccc(-c2nccc(-c3nc(N4CCOCC4)c4nc(-c5ccncc5)sc4n3)n2)cc1` [Compound 123], the IC50 is 10 to 100 nM.

As for `c1ccc(-n2ccc(-c3nc(N4CCOCC4)c4cc(-c5ccncc5)sc4n3)n2)cc1` [Compound 124], the 50% inhibitory concentration (IC50) fell in the range of 10 to 100 nM.

These data come from patent US20240150358A1, “PURINES AND METHODS OF THEIR USE” (Kineta, Inc., priority 2020, published 2024).
